Test results as given in PubChem BioAssay (NCI).
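GI50 is the concentration that inhibits growth by half. TGI marks complete inhibition of growth.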

How the values were obtained:
Assay in all cases: NCI tumour cell line growth inhibition, 384-well format
786-0 renal = test system: 786-0 renal
A498 renal = test system: A498 renal
A549 NSCLC = test system: A549 NSCLC
ACHN renal = test system: ACHN renal
BT-549 breast = test system: BT-549 breast
CAKI-1 renal = test system: CAKI-1 renal
CCRF-CEM leukemia = test system: CCRF-CEM leukemia
COLO 205 colon = test system: COLO 205 colon
DU-145 prostate = test system: DU-145 prostate
EKVX NSCLC = test system: EKVX NSCLC
HCC-2998 colon = test system: HCC-2998 colon
HCT-116 colon = test system: HCT-116 colon
HCT-15 colon = test system: HCT-15 colon
HL-60(TB) leukemia = test system: HL-60(TB) leukemia
HOP-62 NSCLC = test system: HOP-62 NSCLC
HOP-92 NSCLC = test system: HOP-92 NSCLC
HS 578T breast = test system: HS 578T breast
HT29 colon = test system: HT29 colon
IGROV1 ovarian = test system: IGROV1 ovarian
K-562 leukemia = test system: K-562 leukemia
KM12 colon = test system: KM12 colon
LOX IMVI melanoma = test system: LOX IMVI melanoma
M14 melanoma = test system: M14 melanoma
MALME-3M melanoma = test system: MALME-3M melanoma
MCF7 breast = test system: MCF7 breast
MDA-MB-231 breast = test system: MDA-MB-231 breast
MDA-MB-435 melanoma = test system: MDA-MB-435 melanoma
MDA-MB-468 breast = test system: MDA-MB-468 breast

Structure (SMILES): Nc1ccccc1NC(=O)c1ccc(CNc2nccc(-c3cccnc3)n2)cc1
- GI50 ([…]-0 renal): 0.39 µM
- TGI (786-0 renal): 2.36 µM
- GI50 (A498 renal): 0.261 µM
- TGI (A498 renal): 1.11 µM
- GI50 (A549 NSCLC): 0.621 µM
- TGI (A549 NSCLC): 2.37 µM
- GI50 (ACHN renal): 0.348 µM
- TGI (ACHN renal): 1.2 µM
- GI50 (BT-549 breast): 0.497 µM
- TGI (BT-549 breast): 2.39 µM
- GI50 (CAKI-1 renal): 0.318 µM
- TGI (CAKI-1 renal): 1.2 µM
- GI50 (CCRF-CEM leukemia): 0.131 µM
- TGI (CCRF-CEM leukemia): 0.266 µM
- GI50 (COLO 205 colon): 0.292 µM
- TGI (COLO 205 colon): 0.741 µM
- GI50 (DU-145 prostate): 0.302 µM
- TGI (DU-145 prostate): 1.42 µM
- GI50 (EKVX NSCLC): 0.766 µM
- TGI (EKVX NSCLC): 18.1 µM
- GI50 (HCC-2998 colon): 0.342 µM
- TGI (HCC-2998 colon): 1.2 µM
- GI50 (HCT-116 colon): 0.136 µM
- TGI (HCT-116 colon): 0.35 µM
- GI50 (HCT-15 colon): 0.336 µM
- TGI (HCT-15 colon): 1.31 µM
- GI50 (HL-60(TB) leukemia): 0.113 µM
- TGI (HL-60(TB) leukemia): 0.236 µM
- GI50 (HOP-62 NSCLC): 0.255 µM
- TGI (HOP-62 NSCLC): 1.26 µM
- GI50 (HOP-92 NSCLC): 0.219 µM
- TGI (HOP-92 NSCLC): 0.823 µM
- GI50 (HS 578T breast): 0.217 µM
- TGI (HS 578T breast): 0.498 µM
- GI50 (HT29 colon): 0.285 µM
- TGI (HT29 colon): 1.12 µM
- GI50 (IGROV1 ovarian): 0.235 µM
- TGI (IGROV1 ovarian): 0.808 µM
- GI50 (K-562 leukemia): 0.12 µM
- TGI (K-562 leukemia): 0.357 µM
- GI50 (KM12 colon): 0.4 µM
- TGI (KM12 colon): 3.85 µM
- GI50 (LOX IMVI melanoma): 0.175 µM
- TGI (LOX IMVI melanoma): 0.322 µM
- GI50 (M14 melanoma): 0.456 µM
- TGI (M14 melanoma): 1.64 µM
- GI50 (MALME-3M melanoma): 0.15 µM
- TGI (MALME-3M melanoma): 0.298 µM
- GI50 (MCF7 breast): 0.213 µM
- TGI (MCF7 breast): 1.09 µM
- GI50 (MDA-MB-231 breast): 0.371 µM
- TGI (MDA-MB-231 breast): 3.25 µM
- GI50 (MDA-MB-435 melanoma): 0.209 µM
- TGI (MDA-MB-435 melanoma): 0.419 µM
- GI50 (MDA-MB-468 breast): 0.234 µM
- TGI (MDA-MB-468 breast): 0.592 µM
